Data published in patent US20250002488A1, “Glioblastoma Multiforme Treatments” (Brown University, priority 2021, published 2025).

How the values were obtained:
GSCs [1] = assay: two-week limiting dilution assay (LDA), self-renewal / neuro-sphere formation; assay type: cell-based
Source text: A graph using an online algorism to score and assess the self-renew ability of GSCs treated with DMSO and HDAC class IIa inhibitor respectively (FIGS. 6B and 6D).
To validate whether HDAC-7 inhibition would present a phenotype change in primary GSCs, its effect on modifying the self-renewal of GSCs was examined, and since there is no small molecule drug currently available as a selective HDAC-7 inhibitor, the class IIa HDAC inhibitor, TMP269, that inhibits HDAC-4,5,7,9, was used. The two-week limiting dilution assay “LDA” that tests the frequency of self-renewing cells within a population was applied. […] Moreover, the same significant result was observed when testing GSCs from different genotypes (FIGS. 6A-6D).

GSCs [2] = assay: cell viability assay by MTS; assay type: cell-based; settings: increasing doses, 72 hrs
Experimental: Dose response curve for GSCs treated with Pan HDAC inhibitors TSA (Trichostatin A), SAHA (Vorinostat) versus the HDAC class IIa inhibitor (TMP269). Cell viability assay was determined by MTS after the treatment with increasing doses of each corresponding drug at time point 72 hrs with P-value <0.0001.
HDAC-7 has been crystalized, and like other members of class I, II, and IV, HDAC-7 binds to the substrates through a zinc mediated charge relay system. Class IIa HDAC has another specific zinc-binding motif adjacent to the active site, which directs the recognition and protein-protein interaction. However, there is remarkable structural diversity in HDAC-7 found in loop regions around the active site entrance that poses a challenge to generation of inhibitors.

Structure (SMILES)	neuro-sphere formation of GSCs (GSCs [1]; 2-week limiting dilution assay, versus DMSO control)	self-renewal of GSCs (ability to form neuro-spheres, algorithmic scoring) (GSCs [1]; two-week LDA, versus DMSO-treated control cells, GSCs from different genotypes)	GSC cell viability (GSCs [2])
O=C(NCC1(c2nc(-c3ccccc3)cs2)CCOCC1)c1cccc(-c2noc(C(F)(F)F)n2)c1 [TMP269]	unable to form neuro-spheres	significant decrease	decreases the GSCs' viability
O=C(CCCCCCC(=O)Nc1ccccc1)NO [Vorinostat]	–	–	inhibitory trend
